# Assay results: US6166067A, “Inhibitors of cholesterol-biosynthesis for reducing the cholesterol content of poultry eggs” (priority 1998, dated 2000)
# Counter-ions that a name gives are not always drawn. Like-named read-outs stand apart in the source and are kept apart here.
# Columns and labels:
# plasma cholesterol [1] = settings: broilers, when cholesterol was fed at the same time; cited from earlier work
# [2] = tested on: triglycerides in the yolk; test: Triglycerides in egg yolk, laying-hen feeding trial (Example 1); type: in vivo, laying hens (Lohmann Selected Leghorn); settings: 4 weeks
# Protocol: (§1) At the start of the trial, the laying hens (Lohmann Selected Leghorn) had been laying for 28 weeks. One treatment group consisted of 10 hens. The birds were initially fed with the various active ingredients for 4 weeks. The eggs were then collected for the analyses. 3 independent yolk pools were formed from 6 eggs in each case and were deep-frozen until analyzed. Total cholesterol and triglycerides in the yolk were analyzed by enzymatic methods. The analyses were carried out as stated in the handbook "Veterinarmedizinische Laboruntersuchungen fur die Diagnose und Verlaufskontrolle" (1985), 3rd edition, published by Boehringer Mannheim GmbH, Mannheim.
# (§2) The triglycerides are determined enzymatically via their glycerol content. The triglycerides are cleaved enzymatically by the enzymes lipase and esterase. The resulting glycerol is phosphorylated by ATP to glycerol 3-phosphate in the reaction catalyzed by glycerol kinase GK.
# glycerol+ATP.revreaction.glycerol 3-phosphate+ADP
# The resulting ADP is converted by pyruvate kinase (PK) with phosphoenolpyruvate (PEP) back into ATP, with formation of pyruvate. [drawing 6] Pyruvate is hydrogenated to lactate by lactate dehydrogenase (LDH) with NADH, the NADH being oxidized to NAD. [drawing 7]
# The amount of NADH consumed during the reaction is equivalent to the amount of glycerol. NADH is the measured variable and can easily be determined from its absorption at Hg 366 nm, Hg 334 nm or 340 nm.
# (§3) The data were subjected to analysis of variance, and differences between means were ranged by the Duncan test.
# HMG-CoA reductase [3] = settings: broilers, supplementation; cited from earlier work
# [4] = Tocopherol and tocotrienol contents in yolk by HPLC (Example 1); type: in vivo, laying hens (Lohmann Selected Leghorn)
# Protocol: as §1
# Tocopherols and tocotrienols in the yolk pools were determined by HPLC. To do this, the sample is hydrolyzed in aqueous alcoholic medium and extracted several times with diethyl ether. Quantification takes place by comparison with external standards.
# Stationary phase: Spherisorb CN 5 μm, 250×4 mm
# Mobile phase: n-Hexane with 0.25% i-propanol
# Fluorescence detection: 292 nm (extinction) 326 nm (emission)
# [5] = tested on: total cholesterol in the yolk; test: Total cholesterol in egg yolk, laying-hen feeding trial (Example 1); type: in vivo, laying hens (Lohmann Selected Leghorn); settings: 4 weeks
# Protocol: as §1
# (§4) For the cholesterol determination, the cholesterol esters were cleaved to cholesterol and fatty acid by the action of cholesterol esterase. Free cholesterol is converted by atmospheric oxygen with the involvement of cholesterol oxidase into Δ^4 -cholestenone and hydrogen peroxide. The resulting hydrogen peroxide forms with 4-aminophenazone and phenol through the catalytic action of peroxidase a red dye whose intensity of color is directly proportional to the cholesterol concentration and can be measured at 500 to 550 nm.
# as §3
# [6] = tested on: cholesterol content of poultry eggs; settings: cited from earlier work; for reduction of cholesterol content of poultry eggs: literature (Elkin et al.)
# [7] = cited from earlier work
# cholesterol in yolk = test: Cholesterol in egg yolk, laying-hen feeding trial (Example 2); type: in vivo, laying hens; settings: for Cholesterol, yolk: control 10.23; for reduction in yolk cholesterol: significant; for trend in yolk cholesterol content: Example 2
# Excerpt: as §4
# (§5) Another feeding experiment was carried out in analogy to Example 1. In this case the intention was to test not only α- and δ-tocotrienol but also a tocotrienol precursor (4-oxo-γ-tocotrienol) and other terpenoids such as farnesyl acetate, perillyl alcohol, linalool and β-ionone, in laying hens.
# (§6) The trial protocol corresponds to that in Example 1 but with the following amendments:
# (§7) The number of birds comprised 8 hens per treatment.
# (§8) Triglyceride and cholesterol were determined in 4 independent yolk pools(each from 6 eggs) and plasma.
# plasma cholesterol [8] = test: Cholesterol in plasma, laying-hen feeding trial (Example 2); type: in vivo, laying hens; settings: control 125.3
# Excerpt: as §4, §5, §6, §7
# (§9) 4 birds in each case from the control and the high dosages were sacrificed at the end of the trial. After taking blood to obtain plasma, the birds were completely exsanguinated. The liver was then removed and deep frozen until analyzed.
# as §8
# plasma triglyceride = test: Triglycerides in plasma, laying-hen feeding trial (Example 2); type: in vivo, laying hens; settings: for Triglycerides, plasma: control 2496; for reduction of plasma triglyceride level: Example 2, maximum
# Protocol: as §2, §5, §6, §7, §9, §8
# triglycerides in yolk = test: Triglycerides in egg yolk, laying-hen feeding trial (Example 2); type: in vivo, laying hens; settings: control 170.4
# Protocol: as §2, §5, §6, §7, §8
# tumors = settings: cell culture and rats and mice; cited from earlier work
# HMG-CoA reductase [9] = settings: cell culture and rats and mice; cited from earlier work
# [10] = tested on: cholesterol synthesis in macrophages; settings: Fuhrmann et al. 1997; cited from earlier work
# [11] = tested on: β-hydroxy-β-methyl-glutaryl (HMG)-CoA reductase; settings: cited from earlier work
# [12] = 1000 mg/kg feed, after hydrolysis
# [13] = 500 mg/kg feed, significant, complete yolk
# [14] = 20 mg/kg feed, after hydrolysis
# [15] = 500 mg/kg feed, after hydrolysis
# [16] = both dosages (100 and 1000 mg/kg feed)
compound,measurement,setting,value
"CC(=O)Oc1c(C)c(C)c2c(c1C)CCC(C)(CCCC(C)CCCC(C)CCCC(C)C)O2 (racemic) [vitamin E (all-rac-α-tocopheryl acetate), all-rac-α-tocopheryl acetate, reference compound]",change in plasma cholesterol,plasma cholesterol [1],increase in plasma cholesterol
same,effect on triglycerides in the yolk,[2]; 1000 mg/kg feed,no effect
same,effect on HMG-CoA reductase,HMG-CoA reductase [3],stimulation of HMG-CoA reductase
same,α-Tocopherol content in yolk,[4]; [12],23064 μg/yolk
same,α-Tocotrienol content in yolk,[4]; [12],227 μg/yolk
same,γ-Tocopherol content in yolk,[4]; [12],188 μg/yolk
same,δ-Tocopherol content in yolk,[4]; [12],36 μg/yolk
same,δ-Tocotrienol content in yolk,[4]; [12],0 μg/yolk
same,α-Tocopherol content in yolk,"[4]; 1000 mg/kg feed, control 0.48 mg",23 mg
same,effect on γ-tocopherol in the yolk,[4]; high α-tocopherol dosage (1000 mg/kg feed),reduction in γ-tocopherol in the yolk
same,effect on cholesterol in the yolk,[5]; 1000 mg/kg feed,no effect
CC(=O)Oc1cc2c(c(C)c1C)OC(C)(CC/C=C(\C)CC/C=C(\C)CCC=C(C)C)CC2 (racemic) [γ-tocotrienol acetate],reduction in triglycerides in the yolk,[2]; [13],15%
same,effect on triglycerides in the yolk,"[2]; low dosage, 20 mg/kg feed",no effect
same,α-Tocopherol content in yolk,[4]; [14],545 μg/yolk
same,α-Tocotrienol content in yolk,[4]; [14],0 μg/yolk
same,γ-Tocopherol content in yolk,[4]; [14],393 μg/yolk
same,δ-Tocopherol content in yolk,[4]; [14],57 μg/yolk
same,δ-Tocotrienol content in yolk,[4]; [14],0 μg/yolk
same,α-Tocopherol content in yolk,[4]; [15],433 μg/yolk
same,α-Tocotrienol content in yolk,[4]; [15],0 μg/yolk
same,γ-Tocopherol content in yolk,[4]; [15],425 μg/yolk
same,δ-Tocopherol content in yolk,[4]; [15],59 μg/yolk
same,δ-Tocotrienol content in yolk,[4]; [15],366 μg/yolk
same,reduction in cholesterol in the yolk,[5]; [13],15%
same,effect on cholesterol in the yolk,"[5]; low dosage, 20 mg/kg feed",no effect
"CC(C)c1c(Br)c(Br)c(-c2ccc(F)cc2)n1CC[C@@H](O)C[C@@H](O)CC(=O)O (relative stereo) [(±)-(R*,R*)-3,4-dibromo-β,δ-dihydroxy-2-(4-fluorophenyl)-5-(1-methylethyl)-1H-pyrrole-1-heptanoic acid, Na salt]",reduction of cholesterol content of poultry eggs,[6],30%
same,"influence on poultry performance parameters, such as the egg output",[7]; literature (Elkin et al.),without influencing
"CC(C)=CCC/C(C)=C/CC/C(C)=C/CCC1(C)CC(=O)c2cc(O)c(C)c(C)c2O1 (stereo not shown) [4-Oxo-γ-tocotrienol, 4-oxo-γ-tocotrienol]","Cholesterol, yolk",cholesterol in yolk; 50 mg/kg feed,9.78 mg/g
same,"Cholesterol, yolk",cholesterol in yolk; 500 mg/kg feed,8.55 mg/g
same,reduction in yolk cholesterol,cholesterol in yolk; high dosage (500 mg/kg feed),up to 18%
same,"Cholesterol, plasma",plasma cholesterol [8]; 500 mg/kg feed,166.8 mg/dL
same,"Triglycerides, plasma",plasma triglyceride; 500 mg/kg feed,4336 mg/dL
same,"Triglycerides, yolk",triglycerides in yolk; 50 mg/kg feed,188.3 mg/g
same,"Triglycerides, yolk",triglycerides in yolk; 500 mg/kg feed,172.0 mg/g
"CC(=O)OC/C=C(\C)CC/C=C(\C)CCC=C(C)C [Farnesyl acetate, farnesyl acetate]","Cholesterol, yolk",cholesterol in yolk; 750 mg/kg feed,10.15 mg/g
same,"Cholesterol, yolk",cholesterol in yolk; 7500 mg/kg feed,10.23 mg/g
same,"Cholesterol, plasma",plasma cholesterol [8]; 7500 mg/kg feed,129.3 mg/dL
same,"Triglycerides, plasma",plasma triglyceride; 7500 mg/kg feed,1929 mg/dL
same,reduction of plasma triglyceride level,plasma triglyceride,≤ 25%
same,"Triglycerides, yolk",triglycerides in yolk; 750 mg/kg feed,177.1 mg/g
same,"Triglycerides, yolk",triglycerides in yolk; 7500 mg/kg feed,175.9 mg/g
"C=CC(C)(O)CCC=C(C)C (stereo not shown) [Linalool, linalool]",inhibition of tumors,tumors,inhibit tumors
same,"Cholesterol, yolk",cholesterol in yolk; 100 mg/kg feed,8.40 mg/g
same,"Cholesterol, yolk",cholesterol in yolk; 1000 mg/kg feed,8.97 mg/g
same,reduction in yolk cholesterol,cholesterol in yolk; [16],up to 18%
same,"Cholesterol, plasma",plasma cholesterol [8]; 1000 mg/kg feed,211.6 mg/dL
same,"Triglycerides, plasma",plasma triglyceride; 1000 mg/kg feed,1907 mg/dL
same,inhibition of HMG-CoA reductase,HMG-CoA reductase [9],inhibit HMG-CoA reductase
same,"Triglycerides, yolk",triglycerides in yolk; 100 mg/kg feed,187.5 mg/g
same,"Triglycerides, yolk",triglycerides in yolk; 1000 mg/kg feed,163.1 mg/g
"C=C(C)C1CC=C(CO)CC1 (stereo not shown) [Perillyl alcohol, perillyl alcohol]","Cholesterol, yolk",cholesterol in yolk; 500 mg/kg feed,9.55 mg/g
same,"Cholesterol, yolk",cholesterol in yolk; 5000 mg/kg feed,9.53 mg/g
same,trend in yolk cholesterol content,cholesterol in yolk,trend toward reduced cholesterol contents in yolk
same,"Cholesterol, plasma",plasma cholesterol [8]; 5000 mg/kg feed,165.3 mg/dL
same,"Triglycerides, plasma",plasma triglyceride; 5000 mg/kg feed,2197 mg/dL
same,reduction of plasma triglyceride level,plasma triglyceride,≤ 25%
same,"Triglycerides, yolk",triglycerides in yolk; 500 mg/kg feed,188.5 mg/g
same,"Triglycerides, yolk",triglycerides in yolk; 5000 mg/kg feed,174.4 mg/g
C=C(C)[C@H]1CC=C(C)CC1 [d-limonene],inhibition of tumors,tumors,inhibit tumors
same,inhibition of HMG-CoA reductase,HMG-CoA reductase [9],inhibit HMG-CoA reductase
"CC(C)=CCC/C(C)=C/CO [geraniol, reference compound]",inhibition of tumors,tumors,inhibit tumors
same,inhibition of HMG-CoA reductase,HMG-CoA reductase [9],inhibit HMG-CoA reductase
CC[C@H](C)C(=O)O[C@H]1C[C@@H](C)C=C2C=C[C@H](C)[C@H](CC[C@@H]3C[C@@H](O)CC(=O)O3)[C@H]21 [lovastatin],reduction of cholesterol content of poultry eggs,[6],15%
same,"influence on poultry performance parameters, such as the egg output",[7]; in vivo,without influencing
CC(C)=CCC/C(C)=C/C=C/C(C)=C/C=C/C(C)=C/C=C/C=C(C)/C=C/C=C(C)/C=C/C=C(\C)CCC=C(C)C [lycopene],inhibition of cholesterol synthesis in macrophages,[10],inhibit cholesterol synthesis in macrophages
CCC(C)(C)C(=O)O[C@H]1C[C@@H](C)C=C2C=C[C@H](C)[C@H](CC[C@@H]3C[C@@H](O)CC(=O)O3)[C@H]21 [simvastatin],effect on the cholesterol content in eggs,[6]; literature (Huggett et al.; Beyer and Jensen),no effect
"CC(=O)/C=C/C1=C(C)CCCC1(C)C [β-Ionone, β-ionone]",inhibition of tumors,tumors,inhibit tumors
same,"Cholesterol, yolk",cholesterol in yolk; 100 mg/kg feed,9.03 mg/g
same,"Cholesterol, yolk",cholesterol in yolk; 1000 mg/kg feed,9.03 mg/g
same,reduction in yolk cholesterol,cholesterol in yolk; [16],up to 18%
same,"Cholesterol, plasma",plasma cholesterol [8]; 1000 mg/kg feed,201.3 mg/dL
same,"Triglycerides, plasma",plasma triglyceride; 1000 mg/kg feed,1954 mg/dL
same,reduction of plasma triglyceride level,plasma triglyceride,≤ 25%
same,inhibition of HMG-CoA reductase,HMG-CoA reductase [9],inhibit HMG-CoA reductase
same,"Triglycerides, yolk",triglycerides in yolk; 100 mg/kg feed,190.7 mg/g
same,"Triglycerides, yolk",triglycerides in yolk; 1000 mg/kg feed,184.8 mg/g
CC1=C(/C=C/C(C)=C/C=C/C(C)=C/C=C/C=C(C)/C=C/C=C(C)/C=C/C2=C(C)CCCC2(C)C)C(C)(C)CCC1 [β-carotene],inhibition of cholesterol synthesis in macrophages,[10],inhibit cholesterol synthesis in macrophages
CC(C)=CCC/C(C)=C/CC/C(C)=C/CCC1(C)CCc2cc(O)c(C)c(C)c2O1 (stereo not shown) [γ-tocotrienol],accumulation of γ-tocotrienol in the yolk,[4]; fed as γ-tocotrienol acetate,scarcely any accumulation
same,γ-tocotrienol detected in the yolk,"[4]; high dosage (500 mg/kg feed, as acetate)",366 µg
same,relative effect versus α-tocotrienol,[11]; HepG2 cell cultures,about 30 times
"CC(C)=CCC/C(C)=C/CC/C(C)=C/CCC1(C)CCc2cc(O)cc(C)c2O1 (stereo not shown) [δ-Tocotrienol, δ-tocotrienol]","Cholesterol, yolk",cholesterol in yolk; 50 mg/kg feed,9.25 mg/g
same,"Cholesterol, yolk",cholesterol in yolk; 500 mg/kg feed,9.23 mg/g
same,trend in yolk cholesterol content,cholesterol in yolk,trend toward reduced cholesterol contents in yolk
same,"Cholesterol, plasma",plasma cholesterol [8]; 500 mg/kg feed,163.0 mg/dL
same,"Triglycerides, plasma",plasma triglyceride; 500 mg/kg feed,2985 mg/dL
same,"Triglycerides, yolk",triglycerides in yolk; 50 mg/kg feed,185.2 mg/g
same,"Triglycerides, yolk",triglycerides in yolk; 500 mg/kg feed,163.9 mg/g
nicotinate [reference compound],effect of ester form by comparison with the alcohol and acetate forms,"[11]; U.S. Pat. No. 5,217,992",most pronounced
